# According to ChEMBL document CHEMBL4152326 (2018):
# Calls of active or inactive are those of the source. The calls are words filed in the database; no cut-off is given here.
# How the values were obtained:
# Pseudomonas aeruginosa [1] = assay: Antimicrobial activity against IMP-1 producing Pseudomonas aeruginosa SR27001 in presence of human apo-transferrin by broth microdilution method; type: functional
# Pseudomonas aeruginosa [2] = assay: Antimicrobial activity against IMP-1 producing Pseudomonas aeruginosa SR27060 in presence of human apo-transferrin by broth microdilution method; type: functional
# Pseudomonas aeruginosa [3] = assay: Antimicrobial activity against AmpC overproducing Pseudomonas aeruginosa SR24-12 in presence of human apo-transferrin by broth microdilution method; type: functional
# Acinetobacter baumannii = assay: Antimicrobial activity against OXA-23/OXA-58 producing Acinetobacter baumannii SR27323 in presence of human apo-transferrin by broth microdilution method; type: functional
# [4] = system: Stenotrophomonas maltophilia; assay: Antimicrobial activity against L-1 producing Stenotrophomonas maltophilia SR21970 in presence of human apo-transferrin by broth microdilution method; type: functional
# Pseudomonas aeruginosa [5] = assay: Antibacterial activity against Pseudomonas aeruginosa SR27001 infected in Jcl:ICR mouse systemic infection model assessed as increase in mouse survival rate administered iv 1 to 5 hrs post infection measured over 7 days; type: functional
# Klebsiella pneumoniae = assay: Antimicrobial activity against KPC-2 producing Klebsiella pneumoniae ATCC BAA-1705 in presence of human apo-transferrin by broth microdilution method; type: functional
# Pseudomonas aeruginosa [6] = assay: Antimicrobial activity against Pseudomonas aeruginosa SR24 in presence of human apo-transferrin by broth microdilution method; type: functional
# Escherichia coli = assay: Antimicrobial activity against SHV-4 producing Escherichia coli ATCC BAA-200 in presence of human apo-transferrin by broth microdilution method; type: functional
# Pseudomonas aeruginosa [7] = assay: Antimicrobial activity against Pseudomonas aeruginosa 27060deltaR1 harboring deletion of R1 plasmid in presence of human apo-transferrin by broth microdilution method; type: functional
# Pseudomonas aeruginosa [8] = assay: Antimicrobial activity against VIM-2 producing Pseudomonas aeruginosa SBRKM-28 in presence of human apo-transferrin by broth microdilution method; type: functional
# [9] = Iron chelating activity in presence of cetyltrimethylammonium bromide at pH 5.5 by chromeazurol B dye based spectrophotometric method
SMILES,MIC (Pseudomonas aeruginosa [1]),MIC (Pseudomonas aeruginosa [2]),MIC (Pseudomonas aeruginosa [3]),MIC (Acinetobacter baumannii),MIC [4],ED50 (Pseudomonas aeruginosa [5]),MIC (Klebsiella pneumoniae),MIC (Pseudomonas aeruginosa [6]),MIC (Escherichia coli),MIC (Pseudomonas aeruginosa [7]),MIC (Pseudomonas aeruginosa [8]),Activity [9]
CC(C)(O/N=C(\C(=O)N[C@@H]1C(=O)N2C(C(=O)[O-])=C(C[N+]3(CCNC(=O)c4cc(O)c(O)c(Cl)c4)CCCC3)CS[C@H]12)c1csc(N)n1)C(=O)O,1 µg/mL,1 µg/mL,0.125 µg/mL,0.25 µg/mL,0.25 µg/mL,10.2 mg/kg,≤ 0.031 µg/mL,0.063 µg/mL,0.5 µg/mL,0.25 µg/mL,–,–
C[C@H](O/N=C(\C(=O)N[C@@H]1C(=O)N2C(C(=O)[O-])=C(C[N+]3(CCNC(=O)c4ccc(O)c(O)c4Cl)CCCC3)CS[C@H]12)c1csc(N)n1)C(=O)O,1 µg/mL,2 µg/mL,0.25 µg/mL,1 µg/mL,0.5 µg/mL,–,0.063 µg/mL,0.25 µg/mL,4 µg/mL,1 µg/mL,0.125 µg/mL,–
CC(C)(O/N=C(\C(=O)N[C@@H]1C(=O)N2C(C(=O)[O-])=C(C[N+](C)(C)CCNC(=O)c3ccc(O)c(O)c3Cl)CS[C@H]12)c1csc(N)n1)C(=O)O,> 32 µg/mL,32 µg/mL,4 µg/mL,0.5 µg/mL,> 32 µg/mL,–,0.5 µg/mL,0.063 µg/mL,> 32 µg/mL,2 µg/mL,0.25 µg/mL,–
Nc1nc(/C(=N/OCC(=O)O)C(=O)N[C@@H]2C(=O)N3C(C(=O)[O-])=C(C[N+]4(CCNC(=O)c5ccc(O)c(O)c5Cl)CCCC4)CS[C@H]23)cs1,2 µg/mL,4 µg/mL,0.5 µg/mL,0.5 µg/mL,1 µg/mL,9.84 mg/kg,0.25 µg/mL,0.125 µg/mL,32 µg/mL,2 µg/mL,0.125 µg/mL,–
CC(C)(O/N=C(\C(=O)N[C@@H]1C(=O)N2C(C(=O)[O-])=C(C[N@+]3(C)[C@@H]4CC[C@H]3C[C@@H](NC(=O)c3ccc(O)c(O)c3Cl)C4)CS[C@H]12)c1csc(N)n1)C(=O)O,0.5 µg/mL,1 µg/mL,0.5 µg/mL,1 µg/mL,1 µg/mL,10.5 mg/kg,0.063 µg/mL,0.25 µg/mL,2 µg/mL,0.5 µg/mL,0.063 µg/mL,–
CC(C)(O/N=C(\C(=O)N[C@@H]1C(=O)N2C(C(=O)[O-])=C(C[N+](C)(C)[C@@H]3CCN(C(=O)c4ccc(O)c(O)c4Cl)C3)CS[C@H]12)c1csc(N)n1)C(=O)O,2 µg/mL,2 µg/mL,0.5 µg/mL,1 µg/mL,1 µg/mL,5.48 mg/kg,0.25 µg/mL,0.25 µg/mL,2 µg/mL,1 µg/mL,0.25 µg/mL,–
CC(C)(O/N=C(\C(=O)N[C@@H]1C(=O)N2C(C(=O)[O-])=C(C[N+]34CCC(CNC(=O)c5ccc(O)c(O)c5Cl)(CC3)CC4)CS[C@H]12)c1csc(N)n1)C(=O)O,2 µg/mL,4 µg/mL,0.5 µg/mL,1 µg/mL,0.25 µg/mL,9.42 mg/kg,0.063 µg/mL,0.25 µg/mL,2 µg/mL,1 µg/mL,0.125 µg/mL,–
CC(C)(O/N=C(\C(=O)N[C@@H]1C(=O)N2C(C(=O)[O-])=C(C[n+]3cc(NC(=O)c4ccc(O)c(O)c4Cl)c4n3CCN4)CS[C@H]12)c1csc(N)n1)C(=O)O,16 µg/mL,16 µg/mL,0.5 µg/mL,0.5 µg/mL,> 16 µg/mL,–,0.125 µg/mL,0.25 µg/mL,1 µg/mL,0.5 µg/mL,0.5 µg/mL,–
C[C@@H](O/N=C(\C(=O)N[C@@H]1C(=O)N2C(C(=O)[O-])=C(C[N+]3(CCNC(=O)c4ccc(O)c(O)c4Cl)CCCC3)CS[C@H]12)c1csc(N)n1)C(=O)O,1 µg/mL,2 µg/mL,0.5 µg/mL,1 µg/mL,0.5 µg/mL,5.48 mg/kg,0.063 µg/mL,0.25 µg/mL,1 µg/mL,1 µg/mL,0.125 µg/mL,–
CC(C)(O/N=C(\C(=O)N[C@@H]1C(=O)N2C(C(=O)[O-])=C(C[N+]3(CCNC(=O)c4ccc(O)c(O)c4F)CCCC3)CS[C@H]12)c1csc(N)n1)C(=O)O,2 µg/mL,1 µg/mL,0.125 µg/mL,0.5 µg/mL,0.25 µg/mL,5.48 mg/kg,≤ 0.031 µg/mL,0.125 µg/mL,0.5 µg/mL,1 µg/mL,–,–
CO/N=C(\C(=O)N[C@@H]1C(=O)N2C(C(=O)[O-])=C(C[N+]3(C)CCCC3)CS[C@H]12)c1csc(N)n1,> 64 µg/mL,> 64 µg/mL,16 µg/mL,16 µg/mL,64 µg/mL,> 100 mg/kg,32 µg/mL,0.5 µg/mL,4 µg/mL,16 µg/mL,16 µg/mL,–
CC(C)(O/N=C(\C(=O)N[C@@H]1C(=O)N2C(C(=O)[O-])=C(C[n+]3ccc(NC(=O)c4ccc(O)c(O)c4Cl)cc3)CS[C@H]12)c1csc(N)n1)C(=O)O,2 µg/mL,2 µg/mL,0.25 µg/mL,2 µg/mL,1 µg/mL,–,0.25 µg/mL,0.063 µg/mL,2 µg/mL,0.5 µg/mL,0.125 µg/mL,–
Nc1nc(/C(=N/OCc2cccc(C(=O)O)c2)C(=O)N[C@@H]2C(=O)N3C(C(=O)[O-])=C(C[N+]4(CCNC(=O)c5ccc(O)c(O)c5Cl)CCCC4)CS[C@H]23)cs1,1 µg/mL,8 µg/mL,0.5 µg/mL,0.5 µg/mL,2 µg/mL,–,2 µg/mL,0.25 µg/mL,16 µg/mL,2 µg/mL,0.125 µg/mL,–
CC(C)(O/N=C(\C(=O)N[C@@H]1C(=O)N2C(C(=O)[O-])=C(C[N+]3(CCNC(=O)c4cccc(O)c4O)CCCC3)CS[C@H]12)c1csc(N)n1)C(=O)O,4 µg/mL,8 µg/mL,0.25 µg/mL,1 µg/mL,1 µg/mL,–,0.063 µg/mL,0.063 µg/mL,2 µg/mL,0.5 µg/mL,–,Active
CC(C)(O/N=C(\C(=O)N[C@@H]1C(=O)N2C(C(=O)[O-])=C(C[N+]3(CCNC(=O)c4ccc(O)c(O)c4Cl)CCCC3)CS[C@H]12)c1nc(N)sc1Cl)C(=O)O,1 µg/mL,1 µg/mL,0.5 µg/mL,2 µg/mL,2 µg/mL,–,0.063 µg/mL,0.25 µg/mL,1 µg/mL,1 µg/mL,0.125 µg/mL,–
CC(C)(O/N=C(\C(=O)N[C@@H]1C(=O)N2C(C(=O)[O-])=C(C[N+]3(CCNC(=O)c4ccc(O)c(O)c4Cl)CCCCC3)CS[C@H]12)c1csc(N)n1)C(=O)O,1 µg/mL,2 µg/mL,0.25 µg/mL,1 µg/mL,0.25 µg/mL,–,0.031 µg/mL,0.25 µg/mL,0.5 µg/mL,1 µg/mL,0.125 µg/mL,–
CC(C)(O/N=C(\C(=O)N[C@@H]1C(=O)N2C(C(=O)[O-])=C(C[N+]3(CCC(=O)Nc4ccc(O)c(O)c4Cl)CCCC3)CS[C@H]12)c1csc(N)n1)C(=O)O,2 µg/mL,2 µg/mL,0.5 µg/mL,2 µg/mL,1 µg/mL,–,0.25 µg/mL,0.25 µg/mL,2 µg/mL,1 µg/mL,0.25 µg/mL,–
CC(C)(O/N=C(\C(=O)N[C@@H]1C(=O)N2C(C(=O)[O-])=C(C[N@+]34CCC[C@H]3CN(C(=O)c3ccc(O)c(O)c3Cl)CC4)CS[C@H]12)c1csc(N)n1)C(=O)O,0.5 µg/mL,4 µg/mL,0.5 µg/mL,2 µg/mL,0.5 µg/mL,–,0.063 µg/mL,0.25 µg/mL,2 µg/mL,1 µg/mL,0.25 µg/mL,–
CC(C)(O/N=C(\C(=O)N[C@@H]1C(=O)N2C(C(=O)[O-])=C(C[N+](C)(C)C3CCN(C(=O)c4ccc(O)c(O)c4Cl)CC3)CS[C@H]12)c1csc(N)n1)C(=O)O,4 µg/mL,4 µg/mL,1 µg/mL,2 µg/mL,1 µg/mL,–,0.125 µg/mL,0.5 µg/mL,2 µg/mL,1 µg/mL,0.5 µg/mL,–
CC(C)(O/N=C(\C(=O)N[C@@H]1C(=O)N2C(C(=O)[O-])=C(C[N+]3(CCNC(=O)c4cc(O)c(O)cc4Cl)CCCC3)CS[C@H]12)c1csc(N)n1)C(=O)O,2 µg/mL,2 µg/mL,0.125 µg/mL,1 µg/mL,0.25 µg/mL,10.2 mg/kg,≤ 0.031 µg/mL,0.063 µg/mL,2 µg/mL,1 µg/mL,–,–
CC(C)(O/N=C(\C(=O)N[C@@H]1C(=O)N2C(C(=O)[O-])=C(C[N+]3(CCNC(=O)c4cc(=O)c(O)cn4O)CCCC3)CS[C@H]12)c1csc(N)n1)C(=O)O,4 µg/mL,4 µg/mL,0.5 µg/mL,0.5 µg/mL,0.125 µg/mL,> 30 mg/kg,0.063 µg/mL,0.125 µg/mL,1 µg/mL,1 µg/mL,0.063 µg/mL,–
